From article PMC6397271 (Scientific Reports, 2019)
≈ marks a conversion by molar mass, not a printed value. Like-named read-outs stand apart in the source and are kept apart here.

Tests used:
[1] = test system: Enterococcus faecalis 3937158; assay: microbe, parasite or virus in culture; type: cell-based
How it was run: (§1)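 Resazurin-based metabolic staining gives the MIC in a broth microdilution format, run in triplicate. Test organisms include Van-susceptible reference MRSA N315, clinical h-VISA isolate 6347 and clinical enterococci, grown at 37 °C for 24 h in cation-adjusted MH or BHI broth.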

[2] = test system: Enterococcus faecium 3934825; assay: microbe, parasite or virus in culture; type: cell-based
How it was run: as §1

S.aureus MRSA 12673 = assay: microbe, parasite or virus in culture; type: cell-based, Staphylococcus aureus; details: Staphylococcus aureus, MRSA
Procedure: (§2) To find out MICA(with B) and MICB(with A) a checkerboard assay was carried out in 96-well microtiter plates (each test was performed in triplicates). […] Each well in a 96-well plate was inoculated with 100 µL of bacterial inoculum of 1 × 10^5 CFU/mL. For this purpose only bacterial strains of MRSA (N315, 12673 and 6347) were used. Next, the plates were incubated at 37 °C for 24 h.
(§3) FIC index (FICI) is the sum of FICA and FICB. The interpretation of the calculated FICIs is in accordance to the following principle: FICI ≤ 0.5 synergy; FICI > 0.5 and ≤4 indifference (no interaction); FICI > 4, antagonism.

S.aureus MRSA N315 = assay: microbe, parasite or virus in culture; type: cell-based, Staphylococcus aureus; details: Staphylococcus aureus, MRSA
Procedure: as §2, §3

[3] = test system: S.aureus MRSA hetero-VISA 6347; assay: microbe, parasite or virus in culture; type: cell-based, Staphylococcus aureus; details: Staphylococcus aureus
Procedure: as §2, §3

[4] = test system: intracellular MRSA 12673 strain in HEK293 cells; assay: Intracellular antimicrobial (infection) assay; type: cell-based, Staphylococcus aureus
Procedure: HEK293 (human embryonic kidney) cells were purchased form Cell Line Services (Germany). The cells were cultured in Dulbecco’s Modified Eagle’s (DMEM) medium with 4.5 g/l glucose (Sigma-Aldrich, Germany), supplemented with 10% fetal bovine serum (FBS, Sigma-Aldrich, Germany) and 1% PEN/STREP (Sigma-Aldrich, Germany). Cells were maintained in a 5% CO2 incubator at 37 °C. The original lines were checked for the presence of mycoplasma.
HEK293 cells were seeded at a density of 1.5 × 10^5 cells/well in 24-well plates in an antibiotic-free medium (DMEM + 10% FBS) and were allowed to adhere overnight. Next, the medium was removed and overnight culture of S. aureus strain (12673) suspended in DMEM + 1% FBS (invasive medium) at a ratio of bacteria/cells 25:1 was added. To enable bacterial invasion, the cells were incubated with bacterial suspensions (37 °C, 5% CO2) for 2 h.
After this period of time extracellular bacteria were eliminated by a 30 min incubation with 20 U/ml lysostaphin. […] The lysis of human cells was carried out with 0.2% Trition-X-100 (Sigma-Aldrich, Germany). The obtained cell lysates were serially diluted in PBS and plated on agar plates and CFU/ml was determined.
The results are presented as the percentage of S. aureus intracellular survival after treatment in comparison to that of non-treated cells (control). The assay was performed in triplicates.

[5] = microbroth dilution, 96-well, resazurin, 37 °C, 24 h, mean ± SD, at least three independent experiments in triplicates, listed as Van-HCl
[6] = same test as μM value, mean ± SD
[7] = 24 h, read-out: MIC Van(with TP10), MICA (with B)

CN[C@H](CC(C)C)C(=O)N[C@H]1C(=O)N[C@@H](CC(N)=O)C(=O)N[C@H]2C(=O)N[C@H]3C(=O)N[C@H](C(=O)N[C@H](C(=O)O)c4cc(O)cc(O)c4-c4cc3ccc4O)[C@H](O)c3ccc(c(Cl)c3)Oc3cc2cc(c3O[C@@H]2O[C@H](CO)[C@@H](O)[C@H](O)[C@H]2O[C@H]2C[C@](C)(N)[C@H](O)[C@H](C)O2)Oc2ccc(cc2Cl)[C@H]1O [Van, vancomycin, reference compound]
MIC ([1]; Enterococcus faecalis, 3937158, 24 h, microbroth dilution, 96-well, resazurin, 37 °C, 24 h, mean ± SD, at least three independent experiments in triplicates, read-out: MIC): 25 µM (≈ 36.2 µg/mL)
MIC ([1]; Enterococcus faecalis, 3937158, raw MIC, first block, test a, repetition 1, read-out: MIC1a): 25 µM (≈ 36.2 µg/mL)
MIC ([1]; Enterococcus faecalis, 3937158, raw MIC, first block, test a, repetition 2, read-out: MIC2a): 25 µM (≈ 36.2 µg/mL)
MIC ([1]; Enterococcus faecalis, 3937158, raw MIC, first block, test a, repetition 3, read-out: MIC3a): 12.5 µM (≈ 18.1 µg/mL)
MIC ([1]; Enterococcus faecalis, 3937158, raw MIC, first block, test b, repetition 1, read-out: MIC1b): 25 µM (≈ 36.2 µg/mL)
MIC ([1]; Enterococcus faecalis, 3937158, raw MIC, first block, test b, repetition 2, read-out: MIC2b): 25 µM (≈ 36.2 µg/mL)
MIC ([1]; Enterococcus faecalis, 3937158, raw MIC, first block, test b, repetition 3, read-out: MIC3b): 12.5 µM (≈ 18.1 µg/mL)
MIC ([1]; Enterococcus faecalis, 3937158, raw MIC, test a, repetition 1, read-out: MIC1a): 37.1 µM (≈ 53.8 µg/mL)
MIC ([1]; Enterococcus faecalis, 3937158, raw MIC, test a, repetition 2, read-out: MIC2a): 37.1 µM (≈ 53.8 µg/mL)
MIC ([1]; Enterococcus faecalis, 3937158, raw MIC, test a, repetition 3, read-out: MIC3a): 18.6 µM (≈ 26.9 µg/mL)
MIC ([1]; Enterococcus faecalis, 3937158, raw MIC, test b, repetition 1, read-out: MIC1b): 37.1 µM (≈ 53.8 µg/mL)
MIC ([1]; Enterococcus faecalis, 3937158, raw MIC, test b, repetition 2, read-out: MIC2b): 37.1 µM (≈ 53.8 µg/mL)
MIC ([1]; Enterococcus faecalis, 3937158, raw MIC, test b, repetition 3, read-out: MIC3b): 18.6 µM (≈ 26.9 µg/mL)
MIC [1, 5]: 25.0 ± 6.5 µM (≈ 36.2 µg/mL)
MIC in (μg/ml) [1, 6]: 37.1 ± 9.6 µg/mL (≈ 25.6 µM)
MIC ([2]; Enterococcus faecium, 3934825, 24 h, microbroth dilution, 96-well, resazurin, 37 °C, 24 h, mean ± SD, at least three independent experiments in triplicates, read-out: MIC): 25 µM (≈ 36.2 µg/mL)
MIC ([2]; Enterococcus faecium, 3934825, raw MIC, first block, test a, repetition 1, read-out: MIC1a): 25 µM (≈ 36.2 µg/mL)
MIC ([2]; Enterococcus faecium, 3934825, raw MIC, first block, test a, repetition 2, read-out: MIC2a): 25 µM (≈ 36.2 µg/mL)
MIC ([2]; Enterococcus faecium, 3934825, raw MIC, first block, test a, repetition 3, read-out: MIC3a): 12.5 µM (≈ 18.1 µg/mL)
MIC ([2]; Enterococcus faecium, 3934825, raw MIC, first block, test b, repetition 1, read-out: MIC1b): 12.5 µM (≈ 18.1 µg/mL)
MIC ([2]; Enterococcus faecium, 3934825, raw MIC, first block, test b, repetition 2, read-out: MIC2b): 25 µM (≈ 36.2 µg/mL)
MIC ([2]; Enterococcus faecium, 3934825, raw MIC, first block, test b, repetition 3, read-out: MIC3b): 25 µM (≈ 36.2 µg/mL)
MIC ([2]; Enterococcus faecium, 3934825, raw MIC, test a, repetition 1, read-out: MIC1a): 37.1 µM (≈ 53.8 µg/mL)
MIC ([2]; Enterococcus faecium, 3934825, raw MIC, test a, repetition 2, read-out: MIC2a): 37.1 µM (≈ 53.8 µg/mL)
MIC ([2]; Enterococcus faecium, 3934825, raw MIC, test a, repetition 3, read-out: MIC3a): 37.1 µM (≈ 53.8 µg/mL)
MIC ([2]; Enterococcus faecium, 3934825, raw MIC, test b, repetition 1, read-out: MIC1b): 18.6 µM (≈ 26.9 µg/mL)
MIC ([2]; Enterococcus faecium, 3934825, raw MIC, test b, repetition 2, read-out: MIC2b): 37.1 µM (≈ 53.8 µg/mL)
MIC ([2]; Enterococcus faecium, 3934825, raw MIC, test b, repetition 3, read-out: MIC3b): 37.1 µM (≈ 53.8 µg/mL)
MIC [2, 5]: 25.0 ± 6.5 µM (≈ 36.2 µg/mL)
MIC in (μg/ml) [2, 6]: 37.1 ± 7.6 µg/mL (≈ 25.6 µM)
MIC (S.aureus MRSA 12673; [7]): 1.6 µM
MIC (S.aureus MRSA 12673; read-out: MIC Van (A), MICA): 4.1 µM
MIC (S.aureus MRSA N315; [7]): 1.6 µM
MIC (S.aureus MRSA N315; read-out: MIC Van (A), MICA): 2 µM
MIC [3, 7]: 1.6 µM
MIC ([3]; read-out: MIC Van (A), MICA): 4.1 µM
percentage of S. aureus intracellular survival ([4]; HEK293 infected 25:1 for 2 h, lysostaphin 20 U/ml 30 min, compound 25 µM for 24 h, CFU/ml of lysates vs non-treated cells, triplicates, Fig. 2): ~95%
intracellular MRSA killed (bacterial killing rate) ([4]; MRSA-infected HEK293 cells, 25 µM, 24 h): 5%
